Read-outs that look alike come from different tables or passages of the source.
Assays:
[1] = test system: total Akt protein in SHP-77 cells; experiment: Total Akt by western blot analysis, SHP-77; assay type: cell-based, human; settings: SHP-77, 250 nM, after 24 hrs
Method: (§1) Cell viability was determined at 24, 48, and 96 hrs by the trypan exclusion method. Whole cell lysates were prepared using standard procedures and fifty micrograms of lysate protein was separated on SDS-PAGE gels and analyzed by western blotting.
(§2) Cell viability was determined at 24, 48, and 96 h by the trypan exclusion method. Whole cell lysates were prepared using standard procedures and 50 μg of lysate protein was separated on SDS-PAGE gels and analyzed by western blotting.

[2] = test system: DMS-114 and SHP-77 SCLC cell lines; experiment: Cell viability by trypan blue exclusion; assay type: cell-based, human; settings: 250 nM, within four days
Method: as §1, §2

H226 = experiment: Flow cytometric analysis of cell death (Annexin V/PI), H226; assay type: cell-based, human; settings: H226, 15 μM, 48 h
Method: All cell lines were grown and exposed to various concentrations of COTI-2 or vehicle only control and the percentage of dead or dying cells were determined 24 and 48 h post-exposure by Annexin V and propidium iodide.
HL-60 (human promyelocytic leukemia) cells were grown as non-adherent cells in flasks in RPMI 1640 medium supplemented with 10% FBS. H226 (human non-small cell lung cancer) cells were grown in Eagle's MEM supplemented with 10% FBS. Both cell lines were obtained from the American Type Culture Collection (ATCC)(Rockville, Md.) and maintained at 37° C. in a humidified 5% CO2 atmosphere.
Cells were plated in 25-cm^2 flasks and treated with COTI-2 (0-100 μM) added from a stock DMSO/DMEM solution such that DMSO concentrations never exceeded 0.5%. Control cells were treated with stock DMSO/DMEM. […] Resuspended cells (100 μl) were incubated in the dark with 10 μl propidium iodide (PI, 50 ng per ml; Sigma, St. Louis, Mo.) plus Annexin V-FITC (25 ng per ml, green fluorescence; BD Biosciences, Mississauga, Ontario). […] Samples were analyzed for combined Annexin V/PI staining (to assess dead plus apoptotic cells) using a Beckman Coulter EPCS XL-MCL flow cytometer (Beckman Coulter, Hileah, Fla.) and the data were analyzed with CellQuest software.

[3] = B-A Permeability (TC7, pH 7.4/7.4) + verapamil; assay type: in vitro ADME; settings: human, Caco-2, pH 7.4, with verapamil (concentration not stated), 1.0E−05 M
[4] = test system: AN3-CA human endometrial tumor xenograft; settings: for Maximum weight loss (%) (Day #): Day 21; for CS (Complete Shrinkage) / Deaths: N 10; for Mean days of Survival (Day ± SEM): end point of 2000 mg
Method: Female athymic nude mice (CrTac:NCR-Foxn1^nu) were supplied by Taconic (Germantown, N.Y.).
The dosing schedule for COTI-2 and the vehicle control was three times weekly until study end. […] When the mean tumor weight of each mouse reached an approximate end-point of 2000 mg, mice were sacrificed with regulated CO2.
The mean tumor shrinkage of each group was calculated and reported.

DMS114 cells = experiment: siRNA target knock-down with COTI-219, cell viability by trypan blue, DMS114; assay type: cell-based, human; settings: DMS114, 500 nM, 48 h
Method: In brief, cells DMS114 and SHP77 cells were transfected with gene specific siRNA in the presence or absence of COTI-219 and cell viability determined after 24 to 48 h post-incubation using the trypan blue exclusion method.
Cell cultures were maintained under regular tissue culture conditions and passaged 1-2 times a week as recommended by ATCC. With the exception of the siRNA for Bim (Signal Silence Bim siRNA kit #6460 from Cell Signaling), all other siRNA reagents for gene knock-down experiments was obtained from Ambion (Silencer Negative Control #1 siRNA #AM4611, CDK2 Silencer Select #s204, HRAS Silencer Select #s807, Protein kinase C alpha Silencer Validated #301, MAPK3/Erk Silencer Pre-designed #214749, EGFR Silencer Select #s563, and ERBB2 Silencer Select #s611). […] The transfection method required optimization such that a knock-down of the target gene greater than ˜75% was achieved and confirmed by western blot analyses. […] Following an optimal knock-down level at >75%, 2×10^5 cells were incubated with 500 nM COTI-219 and number of viable cells was measured at 48 h.
Cell viability assays were performed 24 to 48 h following incubation with COTI-219 by the trypan blue exclusion method using a Beckman-Coulter Vi-CELL XR 2.03 automated cell counter. Routine laboratory methods were employed for the production of cellular lysates, protein quantitation, SDS-PAGE and western blotting. […]

[5] = COTI-2 12.5 mg/kg IV 3X Weekly to end
[6] = COTI-2 50.0 mg/kg IV 3X Weekly to end

S=C(N/N=C1/CCCc2cccnc21)N1CCN(c2ccccn2)CC1 [COTI-2]
total Akt protein [1]: decreased
original tumor cells killed [2]: up to 80%
induction of apoptosis and death (H226): approximately 40%
recovery at 10 µM ([3]; 1st determination, read-out: Percent Recovery 1st): 49%
recovery at 10 µM ([3]; 2nd determination, read-out: Percent Recovery 2nd): 46%
recovery at 10 µM ([3]; mean, read-out: Percent Recovery Mean): 47%
Day 13 Mean tumor weight [4, 5]: 1,828.9 ± 265.8 mg
Maximum weight loss (%) (Day #) [4, 5]: 8.2% (Day 21)
CS (Complete Shrinkage) [4, 5]: 0
Deaths [4, 5]: 0
Mean days of Survival (Day ± SEM) [4, 5]: 16.7 ± 0.8 days
Day 13 Mean tumor weight [4, 6]: 1,542.7 ± 217.2 mg
Day 13 TGI [4, 6]: 7.8%
Maximum weight loss (%) (Day #) [4, 6]: 5.4% (Day 21)
CS (Complete Shrinkage) [4, 6]: 0
Deaths [4, 6]: 1
Mean days of Survival (Day ± SEM) [4, 6]: 17.2 ± 0.7 days
Mean days of Survival (Day ± SEM) ([4]; COTI-2 […] IV 3X Weekly to end): 15.8 ± 0.9 days
toxicity observations ([4]; mouse, in vivo, 50 mg/kg): lethargy and hypoactivity
tumor weights or survival compared to control ([4]; single agent, IV three times weekly): did not show any statistical differences in tumor weights or survival

CN1CCN(C(=S)NN=C2c3ncccc3-c3cccnc32)CC1 [COTI-219]
target knock-downs suppressing the action of COTI-219 on apoptosis/cell growth (DMS114 cells): only the Ras knock-down was able to suppress the action of COTI-219
